According to ChEMBL document CHEMBL5321233, “Biological activity of 1,2,3-triazole-2-amino-1,4-naphthoquinone derivatives and their evaluation as therapeutic strategy for malaria control” (Eur J Med Chem, 2023):
Active and inactive are the calls of the source. The rule behind the calls is not given here.

Legend:
[1] = Acute toxicity in Albino Swiss mouse assessed as behavioural toxicity at 300 mg/kg, po administered as single dose measured after 14 days; assay type: organism-based; conditions: in vivo, 336 h, time 14 day
Plasmodium berghei [2] = test: Antimalarial activity against Plasmodium berghei ANKA infected in Albino Swiss mouse assessed as reduction in parasitemia at 30 mg/kg, po administered for 4 consecutive days measured after day 7 relative to control; assay type: functional; parameters: scale not given: the % may be the effect or the level left; conditions: time 7 day
[3] = Acute toxicity in Albino Swiss mouse assessed as change in motor function at 300 mg/kg, po administered as single dose measured after 14 days; assay type: organism-based; conditions: in vivo, 336 h, time 14 day
Plasmodium berghei [4] = test: Antimalarial activity against Plasmodium berghei ANKA infected in Albino Swiss mouse assessed as reduction in parasitemia at 30 mg/kg, po administered for 4 consecutive days measured after day 5 relative to control; assay type: functional; parameters: scale not given: the % may be the effect or the level left; conditions: time 5 day
[5] = Acute toxicity in Albino Swiss mouse assessed as signs of hyperemia at 300 mg/kg, po administered as single dose measured after 14 days; assay type: organism-based; conditions: in vivo, 336 h, time 14 day
[6] = Acute toxicity in Albino Swiss mouse assessed as signs of cyanosis at 300 mg/kg, po administered as single dose measured after 14 days; assay type: organism-based; conditions: in vivo, 336 h, time 14 day
[7] = Acute toxicity in Albino Swiss mouse assessed as change in sensory function at 300 mg/kg, po administered as single dose measured after 14 days; assay type: organism-based; conditions: in vivo, 336 h, time 14 day
Plasmodium berghei [8] = test: Antimalarial activity against Plasmodium berghei ANKA infected in Albino Swiss mouse assessed as half-survival time at 15 mg/kg, po administered for 4 consecutive days measured for 30 days (reference value: 16 day); assay type: functional; conditions: time 30 day
Plasmodium berghei [9] = test: Antimalarial activity against Plasmodium berghei ANKA infected in Albino Swiss mouse assessed as half-survival time at 30 mg/kg, po administered for 4 consecutive days measured for 30 days (reference value: 16 day); assay type: functional; conditions: time 30 day
Plasmodium berghei [10] = test: Antimalarial activity against Plasmodium berghei ANKA infected in Albino Swiss mouse assessed as reduction in parasitemia at 15 mg/kg, po administered for 4 consecutive days measured after day 5 relative to control; assay type: functional; parameters: scale not given: the % may be the effect or the level left; conditions: time 5 day
[11] = Acute toxicity in Albino Swiss mouse assessed as change in defecation at 300 mg/kg, po administered as single dose measured after 14 days; assay type: organism-based; conditions: in vivo, 336 h, time 14 day
[12] = Acute toxicity in Albino Swiss mouse assessed as change in urination volume at 300 mg/kg, po administered as single dose measured after 14 days; assay type: organism-based; conditions: in vivo, 336 h, time 14 day
[13] = Acute toxicity in Albino Swiss mouse assessed as change in relative weight of kidney at 300 mg/kg, po administered as single dose measured after 14 days; assay type: organism-based; conditions: in vivo, 336 h, time 14 day
[14] = Acute toxicity in Albino Swiss mouse assessed as contortions at 300 mg/kg, po administered as single dose measured after 14 days; assay type: organism-based; conditions: in vivo, 336 h, time 14 day
[15] = Acute toxicity in Albino Swiss mouse assessed as change in urine color at 300 mg/kg, po administered as single dose measured after 14 days; assay type: organism-based; conditions: in vivo, 336 h, time 14 day
Plasmodium falciparum = test: Induction of morphological changes in chloroquine-resistant Plasmodium falciparum W2 trophozoites assessed as degraded cytoplasm by TEM analysis; assay type: functional, organism-based
[16] = Acute toxicity in Albino Swiss mouse assessed as change in diarrhea at 300 mg/kg, po administered as single dose measured after 14 days; assay type: organism-based; conditions: in vivo, 336 h, time 14 day
[17] = Acute toxicity in Albino Swiss mouse assessed as escape reaction at 300 mg/kg, po administered as single dose measured after 14 days; assay type: organism-based; conditions: in vivo, 336 h, time 14 day
Plasmodium berghei [18] = test: Antimalarial activity against Plasmodium berghei ANKA infected in Albino Swiss mouse assessed as reduction in parasitemia at 15 mg/kg, po administered for 4 consecutive days measured after day 7 relative to control; assay type: functional; parameters: scale not given: the % may be the effect or the level left; conditions: time 7 day
[19] = Acute toxicity in Albino Swiss mouse assessed as signs of toxicity at 300 mg/kg, po administered as single dose measured after 14 days; assay type: organism-based; conditions: in vivo, 336 h, time 14 day
[20] = Acute toxicity in Albino Swiss mouse assessed as signs of pallor at 300 mg/kg, po administered as single dose measured after 14 days; assay type: organism-based; conditions: in vivo, 336 h, time 14 day
[21] = Cytotoxicity against African green monkey Vero cells incubated for 24 hrs by MTT assay; assay type: toxicity, cell-based; conditions: chlorocebus sabaeus
[22] = Acute toxicity in Albino Swiss mouse assessed as aggressiveness at 300 mg/kg, po administered as single dose measured after 14 days; assay type: organism-based; conditions: in vivo, 336 h, time 14 day
[23] = Acute toxicity in Albino Swiss mouse assessed as change in relative weight of liver at 300 mg/kg, po administered as single dose measured after 14 days; assay type: organism-based; conditions: in vivo, 336 h, time 14 day
[24] = Acute toxicity in Albino Swiss mouse assessed as change in relative weight of spleen at 300 mg/kg, po administered as single dose measured after 14 days; assay type: organism-based; conditions: in vivo, 336 h, time 14 day
[25] = Toxicity in Albino Swiss mouse infected with Plasmodium berghei ANKA assessed as mortality rate at 15 to 30 mg/kg, po administered for 4 consecutive days measured for 14 days relative to control; assay type: organism-based; conditions: in vivo, dose 15-30 mg/kg, time 14 day, read-out: Activity
HepG2 = test: Cytotoxicity against human HepG2 cells incubated for 24 hrs by MTT assay; assay type: functional

Q: Which results are given for `CCN(CC)CCCC(C)Nc1ccnc2cc(Cl)ccc12` (configuration not stated) [CHLOROQUINE]?
A: Activity [1]: Non-Toxic; Activity (Plasmodium berghei [2]): 98%; Activity [3]: Non-Toxic; Activity (Plasmodium berghei [4]): 99%; Activity [5]: Non-Toxic; Activity [6]: Non-Toxic; Activity [7]: Non-Toxic; Survival (Plasmodium berghei [8]): 26 days; Survival (Plasmodium berghei [9]): 26 days; Activity (Plasmodium berghei [10]): 95%; Activity [11]: Non-Toxic; Activity [12]: Non-Toxic; Activity [13]: Non-Toxic; Activity [14]: Non-Toxic; Activity [15]: Non-Toxic; Activity (Plasmodium falciparum): Active; Activity [16]: Non-Toxic; Activity [17]: Non-Toxic; Activity (Plasmodium berghei [18]): 92%; Activity [19]: Non-Toxic; Activity [20]: Non-Toxic; CC50 at 24 h [21]: 35.8 µM; Activity [22]: Non-Toxic; Activity [23]: Non-Toxic; Activity [24]: Non-Toxic; mortality at 336 h [25]: 20%; CC50 (HepG2): > 200 µM
